From publication PMC9133036 (Nature Communications, 2022)
Where two headings read alike, the source gives them in different places.

Columns and labels:
Assay type in all cases: cell-based
OX2R F228A = target: T1, OX2R F228A (Homo sapiens, UniProt O43614, F228A); assay: β-arrestin PathHunter assay, OX2R F228A; conditions: β-arrestin recruitment
T1 construct: expressed in transfected cells; host or cells: CHO-K1 stably expressing EA β-arrestin2
Experimental: (§1) β-Arrestin recruitment activity was measured by using the PathHunter system (DiscoveRX) according to the manufacturer’s instruction. Receptor constructs used were the full-length wild-type (or mutant) human OX2R sequences cloned into pCMV-ProLink (DiscoveRX). CHO-K1 cells stably expressing EA β-arrestin2 (DiscoveRX) were plated on 384 well white plates (Thermo Fisher) at 4000 cells/well in HamF12 (Wako Pure Chemical Industries) supplemented with 10% fetal bovine serum (Corning) and penicillin-streptomycin (Wako Pure Chemical Industries) and incubated overnight at 37 °C under 5% CO2. Cells were transfected with plasmids encoding wild type or each mutant ProLink-tagged human OX2R using FuGENE HD (Promega). […] Detection reagent was added and incubated for 1 h at room temperature. Luminescent signal was detected using an EnVision plate reader (PerkinElmer). β-arrestin assays on different constructs were performed in two or three independent experiments (each done in quadruplicate). Dose response curves (shown in Supplementary Fig. 8) were fitted to the three-parameter model ‘log(agonist) vs response’ in GraphPad Prism to determine pEC50 values.

OX2R Y232A = target: T2, OX2R Y232A (Homo sapiens, UniProt O43614, Y232A); assay: β-arrestin PathHunter assay, OX2R Y232A; conditions: β-arrestin recruitment
T2 construct: expressed in transfected cells; host or cells: CHO-K1 stably expressing EA β-arrestin2
Experimental: as §1

OX2R Q134A = target: T3, OX2R Q134A (Homo sapiens, UniProt O43614, Q134A); assay: β-arrestin PathHunter assay, OX2R Q134A; design: expressed in transfected cells; host or cells: CHO-K1 stably expressing EA β-arrestin2; conditions: for EC50: β-arrestin recruitment
T3 sequence (O43614 1-444 Q134A): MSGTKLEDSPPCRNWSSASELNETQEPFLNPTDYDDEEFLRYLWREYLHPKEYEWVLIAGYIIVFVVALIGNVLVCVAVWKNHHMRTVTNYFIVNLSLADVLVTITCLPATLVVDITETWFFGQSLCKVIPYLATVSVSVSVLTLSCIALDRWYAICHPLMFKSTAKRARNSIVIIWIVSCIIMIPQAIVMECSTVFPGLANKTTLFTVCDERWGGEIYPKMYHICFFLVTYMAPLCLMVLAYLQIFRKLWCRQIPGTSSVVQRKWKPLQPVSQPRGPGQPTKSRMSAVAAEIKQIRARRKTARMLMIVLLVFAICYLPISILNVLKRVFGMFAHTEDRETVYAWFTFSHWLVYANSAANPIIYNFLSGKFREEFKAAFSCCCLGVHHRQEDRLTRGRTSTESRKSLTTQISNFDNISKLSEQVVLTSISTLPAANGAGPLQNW
Experimental: as §1

OX1R S103T/A127T = target: T4, OX1R S103T/A127T (Homo sapiens, UniProt O43613, A127T/S103T); assay: IP accumulation assay, OX1R S103T/A127T
T4 construct: FLAG; expressed in transfected cells; host or cells: HEK293
T4 sequence (O43613 1-425 S103T/A127T): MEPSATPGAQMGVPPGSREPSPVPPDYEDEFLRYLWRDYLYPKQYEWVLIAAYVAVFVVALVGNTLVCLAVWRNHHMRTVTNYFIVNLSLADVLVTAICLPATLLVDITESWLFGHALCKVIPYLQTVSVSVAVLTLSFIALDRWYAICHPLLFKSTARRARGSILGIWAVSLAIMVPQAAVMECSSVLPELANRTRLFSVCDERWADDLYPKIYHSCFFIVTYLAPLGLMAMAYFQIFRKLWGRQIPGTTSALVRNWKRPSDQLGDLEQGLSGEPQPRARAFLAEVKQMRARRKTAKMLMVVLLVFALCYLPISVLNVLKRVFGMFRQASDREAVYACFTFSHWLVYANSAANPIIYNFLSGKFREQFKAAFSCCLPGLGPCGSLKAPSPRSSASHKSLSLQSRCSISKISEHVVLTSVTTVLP
From the text: The IP assay was adapted from a prior precedent. HEK293 cells were maintained in DMEM-high glucose (Millipore Sigma) supplemented with 5% fetal bovine serum (Corning) and penicillin-streptomycin (Millipore Sigma). Receptor constructs used were the full-length wild-type (or mutant) human OX1R and OX2R sequences cloned into pCDNA3. To enhance the Emax in the IP assay, a plasmid encoding full-length human Gαq subunit[66] was co-transfected into HEK293 cells with plasmids encoding orexin receptor constructs using Lipofectamine 3000 (Thermo Fisher). 24 h after transfection, the cells were plated on poly-D-lysine coated (Millipore Sigma) tissue culture-treated 96 well white plates with clear bottoms (Perkin Elmer) at 30,000 cells per well in Inositol-free DMEM (MP Biomedicals) supplemented with 5% fetal bovine serum, 4 mM L-glutamine (Millipore Sigma), penicillin-streptomycin, and about 5 uCi (5 ul) per ml myo-[2-3H] inositol (Perkin Elmer). The following day, the media was replaced with agonists that were diluted in HBSS (Millipore Sigma) containing 10 mM lithium chloride (Millipore Sigma) and incubated at 37 °C for 45 min. Then agonists were removed and cells were lysed on ice for 30 min with 10 mM formic acid (Millipore Sigma). 1.25 mg of poly-lysine coated YSI SPA beads (Perkin Elmer) was added to each well. The plates were mixed on an orbital shaker for 30 min. The plates were read on a MicroBeta scintillation counter (Perkin Elmer) the following day. IP accumulation assays on different constructs were performed in n ≥ 3 independent experiments (each done in duplicate), where n is shown in Supplementary Table 2.

OX2R R328A = target: T5, OX2R R328A (Homo sapiens, UniProt O43614, R328A); assay: β-arrestin PathHunter assay, OX2R R328A; conditions: β-arrestin recruitment
T5 construct: expressed in transfected cells; host or cells: CHO-K1 stably expressing EA β-arrestin2
Experimental: as §1

T5 sequence (O43614 whole entry R328A): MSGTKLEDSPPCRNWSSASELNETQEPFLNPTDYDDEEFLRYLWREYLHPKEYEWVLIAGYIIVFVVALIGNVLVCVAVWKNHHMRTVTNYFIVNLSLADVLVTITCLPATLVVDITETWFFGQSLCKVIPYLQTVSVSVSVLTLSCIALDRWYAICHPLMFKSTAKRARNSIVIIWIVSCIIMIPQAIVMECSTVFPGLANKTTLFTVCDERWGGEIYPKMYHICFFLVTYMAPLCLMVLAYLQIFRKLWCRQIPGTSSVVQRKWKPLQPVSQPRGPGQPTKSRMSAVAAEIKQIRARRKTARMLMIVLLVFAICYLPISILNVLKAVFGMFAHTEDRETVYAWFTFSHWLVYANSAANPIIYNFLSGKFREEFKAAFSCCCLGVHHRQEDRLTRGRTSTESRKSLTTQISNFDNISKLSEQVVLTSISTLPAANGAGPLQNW
T1 sequence (O43614 whole entry F228A): as the sequence (O43614 whole entry R328A) above, with F228A, A328R counted along it
T2 sequence (O43614 whole entry Y232A): as the sequence (O43614 whole entry R328A) above, with Y232A, A328R counted along it

Structure (SMILES): COC(=O)N1CCC[C@H](NS(C)(=O)=O)[C@@H]1CO[C@H]1CC[C@@H](c2ccccc2)CC1 [TAK-925, methyl (2R,3S)−3-[(methylsulfonyl)amino]−2-{[(cis−4-phenylcyclohexyl)oxy]methyl}piperidine-1-carboxylate]
- EC50 (OX2R F228A): 0.6 µM
- EC50 (OX2R Y232A): 8.5 µM
- β-arrestin recruitment, change on mutation of Gln134 (OX2R Q134A): large reductions
- EC50 (OX2R Q134A; pEC50 ± SEM, read-out: pEC50 (converted)): > 30.2 µM
- EC50 (OX2R Q134A; read-out: EC50): > 30 µM
- activation at 100 µM (OX1R S103T/A127T; 0.75 h, TAK-925 conc (log, M) -4.00): 90.6%
- activation at 33.1 µM (OX1R S103T/A127T; 0.75 h, TAK-925 conc (log, M) -4.48): 102%
- activation at 11.2 µM (OX1R S103T/A127T; 0.75 h, TAK-925 conc (log, M) -4.95): 99.6%
- activation at 3.72 µM (OX1R S103T/A127T; 0.75 h, TAK-925 conc (log, M) -5.43): 94.2%
- activation at 1.23 µM (OX1R S103T/A127T; 0.75 h, TAK-925 conc (log, M) -5.91): 81.6%
- activation at 0.407 µM (OX1R S103T/A127T; 0.75 h, TAK-925 conc (log, M) -6.39): 58.2%
- activation at 0.138 µM (OX1R S103T/A127T; 0.75 h, TAK-925 conc (log, M) -6.86): 26.9%
- activation at 0.0151 µM (OX1R S103T/A127T; 0.75 h, TAK-925 conc (log, M) -7.82): 6.39%
- EC50 (OX1R S103T/A127T; IP accumulation): 0.3 µM
- Emax (OX1R S103T/A127T; normalized to OX1R S103T/A127T Emax): 100
- EC50 (OX2R R328A): 3 µM
